Several values for one entry are separate records, joined by “and”; a condition that tells them apart may be missing. Equal entries are not always repeated.
Legend:
[1] = 1D 1H NMR aqueous solubility in phosphate buffer; format: physicochemical; details: kinetic from dmso stock, phosphate buffer pH 7.4 in D2O, 0.1% d6-DMSO, 25 °C, range 3.125–100 µM, read-out: Soluble in phosphate buffer up to (concentration)
Procedure: 1D ^1H NMR was employed to determine the solubility limits of the four MFP compounds and BMS309403 in phosphate buffer. This method has been commonly used to determine compound solubility in the drug discovery setting (Devine et al. [2014]; Lee et al. [2015b]; Lin et al. [2009]). A 100 mM of stock solution of each compound was first prepared in d6-DMSO. These stock solutions were then added into phosphate buffer (50 mM sodium phosphate, 25 mM NaCl, 100 µM of DSS, pH 7.4 in D2O) to achieve a final d6-DMSO concentration of 0.1% (v/v) which is equivalent to the DMSO concentration present in BV-2 cell culture experiments. All samples were inspected to note whether visible precipitates were formed. ^1H NMR spectra for all of the samples were acquired using Bruker Avance III 600 MHz spectrometer at 25 °C. Experimental data were acquired using a relaxation delay of 5 s with 128 scans, and water suppression using an excitation sculpting pulse scheme. Mestrelab Research 13.0 software was used to integrate the proton resonances of the compounds. A well-resolved peak (i.e. no overlaps with any other peaks) in the spectrum of each compound was chosen for integration, relative to the DSS peak (at 0 ppm). […] In addition, the chemical shifts of the resonances in the 1D ^1H NMR spectra were monitored.

BV-2 cells = assay: MTT assay of BV-2 cell viability; format: cell-based, mouse; details: 24 h
Procedure: BV-2 cells were cultured in DMEM/F-12 media supplemented with 10% (v/v) FBS and 1% (v/v) penicillin/streptomycin, and kept at 37 °C in a humidified incubator ([…], 5% CO2) for all studies. Cells with 80% confluency were used for experiments. At 24 h post-seeding, BV-2 cells were treated with either of the MFP compounds (at concentrations detailed below) or vehicle (0.1% (v/v) DMSO) and 1 µg/mL LPS for a period of 24 h. In some experiments (detailed in Results), BV-2 cells were exposed to MFP compounds for 2 h before a 24 h exposure to LPS and MFP compounds, and in some studies, in the presence of FABP4 siRNA using a 24 h treatment that we have previously employed (Low et al. [2021]). In brief, BV-2 cells were washed once 4 h post-seeding with blank DMEM/F-12 media. siRNA complexes (containing FABP4 siRNA, target sequence 5’-[…]-3’ or AllStar Negative Control siRNA, target sequence proprietary) were added dropwise onto the cells. siRNA complexes were prepared by mixing siRNA and HiPerfect transfection reagent together in FBS-free DMEM/F12 media and incubating for 15 min to allow the siRNA complexes to form. The cells were incubated with the siRNA complex for 5 min, after which, DMEM/F12 media containing FBS was added into each well to dilute the siRNA complexes to 5 nM.
To determine the most appropriate and tolerable concentration of MFP compounds in BV-2 cells, an MTT assay was performed. Following treatment with increasing concentrations of MFP compounds for 24 h, BV-2 cells were rinsed once with PBS prior to being incubated with 0.45 mg/mL MTT reagent for 4 h in a 37 °C, 5% CO2 incubator. After that, the MTT reagent was removed and 150 µL of DMSO was added into all wells for 30 min. The plate was then immediately read on a Perkin-Elmer Enspire fluorescence plate reader (Boston, MA) at 540 nm. Background subtraction was performed before the percentage cell viability was calculated and expressed as a ratio of mean absorbance of MFP-treated cells over mean absorbance of vehicle-treated cells.

LPS-activated BV-2 cells [2] = assay: TNF-α ELISA of supernatant of LPS-activated BV-2 cells; format: cell-based, mouse
Procedure: (§1) BV-2 cells were cultured in DMEM/F-12 media supplemented with 10% (v/v) FBS and 1% (v/v) penicillin/streptomycin, and kept at 37 °C in a humidified incubator ([…], 5% CO2) for all studies. Cells with 80% confluency were used for experiments. At 24 h post-seeding, BV-2 cells were treated with either of the MFP compounds (at concentrations detailed below) or vehicle (0.1% (v/v) DMSO) and 1 µg/mL LPS for a period of 24 h. In some experiments (detailed in Results), BV-2 cells were exposed to MFP compounds for 2 h before a 24 h exposure to LPS and MFP compounds, and in some studies, in the presence of FABP4 siRNA using a 24 h treatment that we have previously employed (Low et al. [2021]). […]
ELISA was performed as per manufacturer’s protocol to measure the concentration of TNF-α in the supernatant in which BV-2 cells were treated. […] 100 µL of Stop solution was added into each well before the plate was immediately read on a Perkin-Elmer Enspire fluorescence plate reader at 450 nm […] and 570 nm (absorbance). Absorbance values at 570 nm were subtracted from 450 nm to account for background. TNF-α concentration was normalised to total protein count (mg), as quantified by a BCA assay, and reported as pg/mg protein.

LPS-activated BV-2 cells [3] = assay: RT-qPCR for TNF-α mRNA expression in LPS-activated BV-2 cells; format: cell-based, mouse; details: 10 µM, 1 µg/mL LPS 24 h
Procedure: as §1
RT-qPCR was performed to determine the amount of TNF-α mRNA following the required cell treatments, as previously described (Low et al. [2020]). […] The concentration and purity of the isolated RNA was assessed using a Thermo Fisher Nanodrop 1000 spectrophotometer (Rockford, IL). […] The threshold cycles (Ct) were automatically calculated using the CFX manager software. […]

## O=C(O)c1cccc(NS(=O)(=O)c2ccc(Cl)c(Cl)c2)c1 [MFP-0012328]
[1]
  solubility: ≥ 100 µM
BV-2 cells; 75 µM and 100 µM of MFP-0012328, 100 µM of the other MFP compounds, range over the compounds
  fold reduction in cell viability: 0.17–0.27 fold
BV-2 cells; 2–50 µM, MTT
  BV-2 cell viability relative to vehicle control: no significant differences
LPS-activated BV-2 cells [2]; 10 µM, 1 µg/mL LPS 24 h
  reduction in extracellular concentration of TNF-α relative to LPS-only: 25% and 24.8%
LPS-activated BV-2 cells [2]; BV-2 cells pre-treated with LPS for 4 h, then 10 µM compound
  reduction of TNF-α release vs LPS-alone: 15.7%
LPS-activated BV-2 cells [3]
  reduction of TNF-α mRNA levels relative to LPS alone: 17%
